Test systems include NCI-H226; M19-MEL; COLO 205; EKVX; OVCAR-5; IGROV-1; SF-539; M14; SN12C; OVCAR-4; SK-MEL-2; HT-29; DLD-1; U-251; HCT-15; HCC 2998; MDA-MB-435; T47D; SR; NCI/ADR-RES.
What all share (assay): NCI anticancer screen, dose series, 48 h

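Results reflect a 48-hour exposure of cells in 96-well plates to compound at five concentrations. GI50 marks 50% less growth.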 The source made the active and inactive calls. Rule as the data show it: active = GI50 up to about 1.1 µM and inactive = higher. Numbered stars: 1 amine (or outer) side, 2 acyl side, 3 side chain; on linkers, the order of the positions; unused ones are H or OH. Bridge positions count the residues as written; N and C are the ends. Square brackets hold non-standard residues; d marks the D form. Peptide text beside a SMILES is read from it. * marks the point of attachment. ξ: configuration not given here. X33 = O=C(C(CCCCNO[*:3])N[*:1])[*:2]; Fmoc = O=C(OCC1c2ccccc2-c2ccccc21)*; ξW = NC(Cc1c[nH]c2ccccc12)C(=O)O; ξP = O=C(O)C1CCCN1

Turning to `CCC1(CC)C(=O)NC(=S)N=C1N`, the GI50 with NCI-H226, in the experiment on M19-MEL, with COLO 205, with EKVX, with OVCAR-5 and in the experiment on IGROV-1 was > 100 µM (inactive) each time. Further, the GI50 with SF-539, in the experiment on M14, in the experiment with SN12C, with OVCAR-4, in the experiment on SK-MEL-2 and with HT-29 was > 100 µM (inactive) throughout. Also, the GI50 is > 100 µM (inactive) in the experiment with DLD-1, > 100 µM (inactive) with U-251 and over 100 µM in the experiment with HCT-15.
Consider `O=C(N/N=C/c1ccc([N+](=O)[O-])cc1)Nc1ccc(Br)cc1`, for which the GI50 was > 100 µM (inactive) with NCI-H226; 63.2 µM (inactive) in the experiment on COLO 205; 26.5 µM (inactive) in the experiment on HCC 2998; 99.1 µM (inactive) with EKVX; 32.6 µM (inactive) in the experiment with MDA-MB-435; > 100 µM (inactive) in the experiment with OVCAR-5. The GI50 with IGROV-1 is 55.5 µM (inactive); in the experiment with T47D, 36.1 µM (inactive); in the experiment with SR it was 43.2 µM (inactive); in the experiment on SF-539, > 100 µM (inactive); in the experiment with M14, 45.2 µM (inactive); in the experiment with SN12C it was 60 µM (inactive). Also, the GI50 was 49 µM (inactive) with OVCAR-4; > 100 µM (inactive) in the experiment on SK-MEL-2; 49.2 µM (inactive) in the experiment on NCI/ADR-RES; 97.1 µM (inactive) with HT-29; 69.3 µM (inactive) in the experiment on U-251; over 100 µM in the experiment on HCT-15.
Regarding `COC(=O)C1Cc2cccc(C)c2C1` (centres undefined), the GI50 with NCI-H226, in the experiment on COLO 205, in the experiment with HCC 2998, in the experiment on EKVX, in the experiment on MDA-MB-435 and with OVCAR-5 was > 100 µM (inactive) throughout. Besides, the GI50 in the experiment on IGROV-1 is > 100 µM (inactive); in the experiment with T47D, > 100 µM (inactive); with SR it was 79.3 µM (inactive); in the experiment on SF-539 it was > 100 µM (inactive); with M14 it was > 100 µM (inactive); in the experiment on SN12C, > 100 µM (inactive). For the same compound, the GI50 with OVCAR-4 is > 100 µM (inactive); in the experiment with SK-MEL-2 it was > 100 µM (inactive); with NCI/ADR-RES, 62.2 µM (inactive); with HT-29, > 100 µM (inactive); in the experiment with U-251, 89.3 µM (inactive); in the experiment on HCT-15, 37.3 µM.
With `O=C(N/N=C/c1ccc([N+](=O)[O-])cc1)Nc1ccc(C(=O)O)cc1`, the GI50 in the experiment on NCI-H226 is 22.2 µM (inactive); in the experiment with COLO 205, 23.1 µM (inactive); in the experiment with HCC 2998, 20.2 µM (inactive); in the experiment on EKVX, 23.1 µM (inactive); in the experiment with MDA-MB-435, 29 µM (inactive); in the experiment on OVCAR-5, 40.6 µM (inactive). In addition, the GI50 is 33.1 µM (inactive) with IGROV-1; 11 µM (inactive) with T47D; 43.5 µM (inactive) in the experiment with SR; 49.3 µM (inactive) with SF-539; 37.4 µM (inactive) in the experiment with M14; 29.9 µM (inactive) in the experiment with SN12C. Besides, the GI50 with OVCAR-4 was 21.2 µM (inactive); in the experiment on SK-MEL-2, 25 µM (inactive); in the experiment on NCI/ADR-RES it was 27 µM (inactive); in the experiment with HT-29, 23.8 µM (inactive); with U-251, 28.2 µM (inactive); in the experiment with HCT-15, 25.5 µM.
As for `C[N+]12CCCCC1C(COc1cccc3cccnc13)CCC2` (centres undefined), the GI50 was 59.6 µM (inactive) in the experiment on NCI-H226; > 100 µM (inactive) with COLO 205; > 100 µM (inactive) in the experiment on HCC 2998; > 100 µM (inactive) in the experiment on EKVX; > 100 µM (inactive) in the experiment with MDA-MB-435; > 100 µM (inactive) in the experiment on OVCAR-5. For the same compound, the GI50 with IGROV-1 was 75.5 µM (inactive); in the experiment on T47D it was > 100 µM (inactive); in the experiment on SR it was > 100 µM (inactive); in the experiment on SF-539 it was > 100 µM (inactive); in the experiment with M14, > 100 µM (inactive); in the experiment with SN12C, > 100 µM (inactive). Moreover, the GI50 in the experiment with OVCAR-4 is > 100 µM (inactive); with SK-MEL-2, > 100 µM (inactive); in the experiment with NCI/ADR-RES, > 100 µM (inactive); in the experiment with HT-29, 53.1 µM (inactive); in the experiment with U-251, > 100 µM (inactive); with HCT-15, over 100 µM.
For the compound `COc1ccc(C(=O)Nc2ccc(S(=O)(=O)NCC(=O)O)cc2)cc1`, the GI50 with M19-MEL, in the experiment with COLO 205, in the experiment with HCC 2998, in the experiment on EKVX, with OVCAR-5 and in the experiment with IGROV-1 was > 100 µM (inactive) each time. Moreover, the GI50 in the experiment on SF-539, in the experiment with M14, in the experiment with SN12C, in the experiment with OVCAR-4, in the experiment with SK-MEL-2 and in the experiment with HT-29 was > 100 µM (inactive) in each case. In addition, the GI50 with DLD-1 is > 100 µM (inactive); with U-251 it was > 100 µM (inactive); in the experiment with HCT-15 it was over 100 µM.
Regarding `O=[N+]([O-])C(=C(Sc1ccccc1)Sc1ccccc1)C(Cl)=C(Cl)Cl`, the GI50 in the experiment with NCI-H226 was 0.614 µM (active); with COLO 205, 0.157 µM (active); in the experiment with HCC 2998, 2.39 µM (inactive); with EKVX, 2.05 µM (inactive); in the experiment with MDA-MB-435, 0.334 µM (active); in the experiment with OVCAR-5 it was 0.486 µM (active). The GI50 is 1.19 µM (inactive) in the experiment with IGROV-1; 0.278 µM (active) in the experiment on T47D; 0.0975 µM (active) in the experiment on SR; 2.13 µM (inactive) in the experiment with SF-539; 0.421 µM (active) in the experiment with M14; 0.65 µM (active) with SN12C. Further, the GI50 is 0.401 µM (active) with OVCAR-4; 2.26 µM (inactive) in the experiment with SK-MEL-2; 0.652 µM (active) with NCI/ADR-RES; 0.123 µM (active) with HT-29; 1.53 µM (inactive) in the experiment with U-251; 0.319 µM in the experiment with HCT-15.
For the compound `COc1cc2c3c(n(Cc4ccccc4)c(=O)c2cc1OC)-c1ccccc1C3=O`, the GI50 in the experiment with NCI-H226, in the experiment with COLO 205, in the experiment with HCC 2998, in the experiment with EKVX, with MDA-MB-435 and with OVCAR-5 was > 100 µM (inactive) throughout. Moreover, the GI50 in the experiment on IGROV-1 was > 100 µM (inactive); with T47D it was > 100 µM (inactive); with SR, 4.1 µM (inactive); with SF-539 it was 90.2 µM (inactive); with M14 it was > 100 µM (inactive); in the experiment on SN12C, 57.1 µM (inactive). Also, the GI50 in the experiment on OVCAR-4 is > 100 µM (inactive); in the experiment on SK-MEL-2, > 100 µM (inactive); in the experiment with NCI/ADR-RES, > 100 µM (inactive); in the experiment on HT-29, > 100 µM (inactive); in the experiment on U-251 it was 64 µM (inactive); in the experiment on HCT-15 it was over 100 µM.
In the case of `C=CCN(C(C)=O)c1cc(OCc2ccccc2)c2c(c1)c(C)cn2S(=O)(=O)c1ccccc1`, the GI50 in the experiment on NCI-H226 is 7.29 µM (inactive); with COLO 205, 3.78 µM (inactive); with HCC 2998, 22.1 µM (inactive); with EKVX, 8.85 µM (inactive); in the experiment with MDA-MB-435 it was 5.11 µM (inactive); with OVCAR-5, 11.8 µM (inactive). Also, the GI50 in the experiment with IGROV-1 was 10 µM (inactive); in the experiment with T47D it was 3.26 µM (inactive); in the experiment with SR, 0.0566 µM (active); with SF-539 it was 11.5 µM (inactive); with M14, 5.4 µM (inactive); in the experiment with SN12C, 5.52 µM (inactive). Further, the GI50 in the experiment with OVCAR-4 is 5.42 µM (inactive); in the experiment with SK-MEL-2 it was 3.11 µM (inactive); in the experiment with NCI/ADR-RES, 4.95 µM (inactive); in the experiment with HT-29 it was 5.55 µM (inactive); in the experiment with U-251, 4.98 µM (inactive); with HCT-15, 4.79 µM.
In the case of `Cc1ccc(NC(=O)NC23CC4CC(CC(F)(C4)C2)C3)cc1`, the GI50 in the experiment on M19-MEL was > 100 µM (inactive); with COLO 205, > 100 µM (inactive); in the experiment with HCC 2998, > 100 µM (inactive); with EKVX, 92.3 µM (inactive); in the experiment with OVCAR-5 it was > 100 µM (inactive); in the experiment on IGROV-1, > 100 µM (inactive). The GI50 with SF-539 was > 100 µM (inactive); in the experiment on M14, 95.3 µM (inactive); with SK-MEL-2 it was > 100 µM (inactive); with HT-29, 53.6 µM (inactive); with DLD-1, > 100 µM (inactive); in the experiment on U-251 it was > 100 µM (inactive).
As to `COc1ccc(C2CC(=O)CC(c3ccc(OC)cc3)C23C(=O)NC(=O)NC3=O)cc1` (centres undefined), the GI50 in the experiment on NCI-H226 is 35.2 µM (inactive); with COLO 205 it was 32.1 µM (inactive); with HCC 2998 it was 20.3 µM (inactive); in the experiment on EKVX it was 32.9 µM (inactive); with MDA-MB-435, 22.7 µM (inactive); in the experiment on OVCAR-5, 56.4 µM (inactive). For the same compound, the GI50 in the experiment with IGROV-1 was 26.2 µM (inactive); in the experiment on T47D, > 10 µM (inactive); in the experiment on SR, 30.4 µM (inactive); with SF-539, > 100 µM (inactive); with M14, 52.5 µM (inactive); in the experiment with SN12C, 46.8 µM (inactive). For the same compound, the GI50 in the experiment on OVCAR-4 is 67 µM (inactive); in the experiment on SK-MEL-2, 18.5 µM (inactive); in the experiment on NCI/ADR-RES it was 34.4 µM (inactive); with HT-29, 33.2 µM (inactive); with U-251, 57.8 µM (inactive); in the experiment with HCT-15, 67.8 µM.
As to `NC(=O)CNC(=O)C1CCCN1C(=O)C1CCCCNOC(=O)CC[C@@H](NC(=O)OCC2c3ccccc3-c3ccccc32)C(=O)NC(Cc2c[nH]c3ccccc23)C(=O)N1` (some centres undefined) (Fmoc-[dE][ξW][X33][ξP]G-NH2; ester 1-3), the GI50 with NCI-H226 is > 100 µM (inactive); with COLO 205 it was > 100 µM (inactive); in the experiment with HCC 2998, > 100 µM (inactive); with EKVX, > 100 µM (inactive); with MDA-MB-435, > 100 µM (inactive); in the experiment on OVCAR-5, 63.5 µM (inactive). The GI50 in the experiment on IGROV-1 was > 100 µM (inactive); in the experiment with T47D it was > 100 µM (inactive); in the experiment with SR, > 100 µM (inactive); in the experiment on SF-539, > 100 µM (inactive); in the experiment with M14, 64.4 µM (inactive); in the experiment with SN12C, > 100 µM (inactive). Moreover, the GI50 in the experiment with OVCAR-4 is > 100 µM (inactive); in the experiment on SK-MEL-2, > 100 µM (inactive); in the experiment on NCI/ADR-RES, > 100 µM (inactive); in the experiment with HT-29, > 100 µM (inactive); in the experiment with U-251 it was > 100 µM (inactive); in the experiment with HCT-15 it was over 100 µM.
